Where two headings read alike, the source gives them in different places.
Legend:
[1] = molecular target: T1, CYP51fx (sterol 14α-demethylase) (Methylococcus capsulatus, UniProt Q603T8); assay: UV-visible spectral titration; assay type: binding
T1 sequence (Q603T8 1-551): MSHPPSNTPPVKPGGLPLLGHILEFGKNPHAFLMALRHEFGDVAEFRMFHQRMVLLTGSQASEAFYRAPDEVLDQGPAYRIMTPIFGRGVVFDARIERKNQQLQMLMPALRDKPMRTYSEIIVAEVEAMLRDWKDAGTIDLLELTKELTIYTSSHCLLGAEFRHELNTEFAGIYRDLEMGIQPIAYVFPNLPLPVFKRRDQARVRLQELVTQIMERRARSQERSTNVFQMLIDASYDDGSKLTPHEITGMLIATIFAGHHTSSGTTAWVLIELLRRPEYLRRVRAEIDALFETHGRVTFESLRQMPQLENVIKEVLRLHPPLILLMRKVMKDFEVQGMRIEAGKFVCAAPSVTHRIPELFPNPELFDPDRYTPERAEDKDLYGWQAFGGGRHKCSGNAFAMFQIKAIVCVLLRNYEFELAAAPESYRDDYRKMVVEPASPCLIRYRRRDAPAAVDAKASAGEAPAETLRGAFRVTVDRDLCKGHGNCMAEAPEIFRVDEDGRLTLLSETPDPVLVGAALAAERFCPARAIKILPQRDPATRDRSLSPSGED

[2] = molecular target: T1, CYP51fx (sterol 14α-demethylase); assay: UV-visible spectral titration; assay type: binding; remark: listed apart in the source
[3] = molecular target: T1, CYP51fx (sterol 14α-demethylase); assay: UV-visible spectral titration; assay type: binding; remark: listed apart in the source
[4] = molecular target: T1, CYP51fx (sterol 14α-demethylase); assay type: biochemical

SMILES	Kd [2] [nM]	Kd [3] [nM]	further results
CC(C)=CCC[C@@H](C)[C@H]1CC[C@@]2(C)[C@@H]3CC=C4[C@@H](CC[C@H](O)C4(C)C)[C@]3(C)CC[C@]12C [cucurbitadienol]	–	–	Kd [1]: 670 nM
CC(C)=CCC[C@@H](C)[C@H]1CC[C@@]2(C)[C@@H]3CC[C@H]4C(C)(C)[C@@H](O)CC[C@@]45C[C@@]35CC[C@]12C [cycloartenol]	460	–	–
C=C(CC[C@@H](C)[C@H]1CC[C@@]2(C)C3=C(CC[C@]12C)[C@@]1(C)CC[C@H](O)C(C)(C)[C@@H]1CC3)C(C)C [eburicol]	–	48 ± 4	–
CC(C)=CCC[C@@H](C)[C@H]1CC[C@@]2(C)C3=C(CC[C@]12C)[C@@]1(C)CC[C@H](O)C(C)(C)[C@@H]1CC3 [lanosterol]	–	94 ± 11	–
C=C(CC[C@@H](C)[C@H]1CC[C@@]2(C)C3=C(CC[C@]12C)[C@@]1(C)CC[C@H](O)[C@@H](C)[C@@H]1CC3)C(C)C [obtusifoliol]	–	–	reconstituted 14α-demethylase turnover of radiolabeled sterol with E. coli flavo [4]: 1.2 min⁻¹
CC(C)=CCC[C@@H](C)[C@H]1CC[C@@]2(C)[C@@H]3CC[C@H]4C(C)(C)[C@@H](O)CC[C@]4(C)C3=CC[C@]12C [parkeol]	260	–	–
